According to patent US20260152527A1, “NOVEL MELANOCORTIN ANALOGS” (priority 2022, published 2026):
Starred links: 1 amine or outer side, 2 acyl side, 3 side chain; linkers in the order of their positions; H or OH if unused. Positions of bridges follow the written chain, without caps; N, C: chain ends. Non-standard residues stand in square brackets, D forms with d. Residues, ends and D or L forms follow the SMILES beside them. Triazole bridges read from a SMILES are 1,4-linked. NMeW = CN[C@@H](Cc1c[nH]c2ccccc12)C(=O)O; Lys(N3) = [N-]=[N+]=NCCCC[C@H](N)C(=O)O; Phe(4-NH2) = Nc1ccc(C[C@H](N)C(=O)O)cc1; NMeR = CN[C@@H](CCCNC(=N)N)C(=O)O; hArg = N=C(N)NCCCC[C@H](N)C(=O)O; Aad = N[C@@H](CCCC(=O)O)C(=O)O; Suc = O=C(CCC(=O)[*:2])[*:1]; Nle = CCCC[C@H](N)C(=O)O; Pra = C#CC[C@H](N)C(=O)O; Dab = NCC[C@H](N)C(=O)O

Target: T1, human recombinant MC1R (Homo sapiens, UniProt Q01726)
T1 construct: host or cells: CHO-K1
Test: cyclic AMP (cAMP) functional assay, MC1R stable cell line (CHO-K1);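 also: cells with test compound for 60 min at room temperature in buffer containing IBMX, then cAMP quantified by Eu-cAMP tracer and ULight anti-cAMP detection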
Assay type: cell-based
Conditions: cAMP functional assay

T1 sequence (Q01726 whole entry): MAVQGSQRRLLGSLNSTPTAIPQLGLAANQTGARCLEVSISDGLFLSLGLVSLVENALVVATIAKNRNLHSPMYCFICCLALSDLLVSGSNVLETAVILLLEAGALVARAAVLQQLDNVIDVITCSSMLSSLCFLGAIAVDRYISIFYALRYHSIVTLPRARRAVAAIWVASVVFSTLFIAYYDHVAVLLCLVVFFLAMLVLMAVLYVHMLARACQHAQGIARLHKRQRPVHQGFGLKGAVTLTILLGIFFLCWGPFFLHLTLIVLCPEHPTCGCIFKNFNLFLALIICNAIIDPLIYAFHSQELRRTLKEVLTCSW

| IC50 [nM] | Compound |
| --- | --- |
| 0.11 | CSCC[C@H](NC(=O)[C@H](CO)NC(=O)[C@H](Cc1ccc(O)cc1)NC(=O)[C@H](CO)NC(C)=O)C(=O)N[C@@H](CCC(=O)O)C(=O)N[C@@H](Cc1c[nH]cn1)C(=O)N[C@@H](Cc1ccccc1)C(=O)N[C@@H](CCCNC(=N)N)C(=O)N[C@@H](Cc1c[nH]c2ccccc12)C(=O)NCC(=O)N[C@@H](CCCCN)C(N)=O [KR-006] |
| 0.88 | CSCC[C@H](NC(=O)[C@H](CO)NC(=O)[C@H](Cc1ccc(O)cc1)NC(=O)[C@H](CO)NC(C)=O)C(=O)N[C@@H](CCC(=O)O)C(=O)N[C@@H](Cc1c[nH]cn1)C(=O)N[C@@H](Cc1ccccc1)C(=O)N[C@@H](CCCNC(=N)N)C(=O)N(C)[C@@H](Cc1c[nH]c2ccccc12)C(=O)NCC(=O)N[C@@H](CCCCN)C(=O)N1CCC[C@H]1C(=O)N[C@H](C(N)=O)C(C)C [KR-024] |
| 0.081 | CCCC[C@H](NC(C)=O)C(=O)N[C@H]1CSCc2cccc(c2)CSC[C@@H](C(=O)N[C@@H](Cc2c[nH]c3ccccc23)C(N)=O)NC(=O)[C@H](CCCNC(=N)N)NC(=O)[C@@H](Cc2ccccc2)NC(=O)[C@H](Cc2c[nH]cn2)NC1=O [KR-032, Ac-Nle-cyc(Cys-His-DPhe-Arg-Cys)-Trp, L: m-xylene-NH2] |
| 0.88 | CCCC[C@@H]1NC(=O)CSC[C@@H](C(N)=O)NC(=O)[C@H](CCCCN)NC(=O)CNC(=O)[C@H](Cc2c[nH]c3ccccc23)NC(=O)[C@H](CCCNC(=N)N)NC(=O)[C@H](Cc2ccccc2)NC(=O)[C@H](Cc2c[nH]cn2)NC(=O)[C@H](CCC(=O)O)NC1=O [KR-036] ({CH2CO}-[Nle]EHFRWGKC-NH2; thioether N-9) |
| 0.024 | CCCC[C@H](NC(C)=O)C(=O)N[C@H]1CCCCn2cc(nn2)C[C@@H](C(=O)N[C@@H](CCCCN)C(N)=O)NC(=O)[C@H](Cc2c[nH]c3ccccc23)NC(=O)[C@H](CCCNC(=N)N)NC(=O)[C@@H](Cc2ccccc2)NC(=O)[C@H](Cc2c[nH]cn2)NC1=O [KR-037, Ac-Nle-[Lys(N3)-His-DPhe-Arg-Trp-Pra]-Lys-NH2] (Ac-[Nle][Lys(N3)]H[dF]RW[Pra]K-NH2; triazole 2-7) |
| 0.04 | CCCC[C@H](NC(C)=O)C(=O)N[C@H]1CCNC(=O)CCC(=O)NCC[C@@H](C(N)=O)NC(=O)[C@H](Cc2c[nH]c3ccccc23)NC(=O)[C@H](CCCNC(=N)N)NC(=O)[C@@H](Cc2ccccc2)NC(=O)[C@H](Cc2c[nH]cn2)NC1=O [KR-041, Ac-Nle-[Dab-His-DPhe-Arg-Trp-Dab] Linker: succinic acid-NH2] (Ac-[Nle][Dab]H[dF]RW[Dab]-NH2; linker 2-7 via Suc (inferred)) |
| 0.16 | CCCC[C@H](NC(C)=O)C(=O)N[C@H]1CCn2cc(nn2)COCc2cn(nn2)CC[C@@H](C(N)=O)NC(=O)[C@H](Cc2c[nH]c3ccccc23)NC(=O)[C@H](CCCNC(=N)N)NC(=O)[C@@H](Cc2ccccc2)NC(=O)[C@H](Cc2c[nH]cn2)NC1=O [KR-042, Ac-Nle-[Dab(N3)-His-DPhe-Arg-Trp-Dab(N3)] linkr: 3,3′-Oxybis[1-propyne]-NH2] |
| > 50 | CCCC[C@H](NC(C)=O)C(=O)N[C@H]1CCCCn2cc(nn2)C[C@@H](C(N)=O)NC(=O)[C@H](Cc2c[nH]c3ccccc23)NC(=O)[C@H](CCCNC(=N)N)NC(=O)[C@@H](Cc2ccccc2)NC(=O)[C@H](Cc2ccc(N)cc2)NC1=O [KR-047, Ac-Nle-[Lys(N3)-Phe(4-NH2)-DPhe-Arg-Trp-Pra]-NH2] (Ac-[Nle][Lys(N3)][Phe(4-NH2)][dF]RW[Pra]-NH2; triazole 2-7) |
| 0.081 | CCCC[C@H](NC(C)=O)C(=O)N[C@H]1CCCCn2cc(nn2)C[C@@H](C(N)=O)NC(=O)[C@H](Cc2c[nH]c3ccccc23)N(C)C(=O)[C@H](CCCNC(=N)N)N(C)C(=O)[C@@H](Cc2ccccc2)NC(=O)[C@H](Cc2c[nH]cn2)NC1=O [KR-050, Ac-Nle-[Lys(N3)-His-DPhe-NMeArg-NMeTrp-Pra]-NH2] (Ac-[Nle][Lys(N3)]H[dF][NMeR][NMeW][Pra]-NH2; triazole 2-7) |
| 0.093 | CCCC[C@H](NC(C)=O)C(=O)N[C@H]1CCCCn2cc(nn2)C[C@@H](C(=O)N[C@@H](CCCCN)C(N)=O)NC(=O)[C@H](Cc2c[nH]c3ccccc23)NC(=O)[C@H](CCCCNC(=N)N)NC(=O)[C@@H](Cc2ccccc2)NC(=O)[C@H](Cc2c[nH]cn2)NC1=O [KR-054, Ac-Nle-[Lys(N3)-His-DPhe-HArg-Trp-Pra]-Lys-NH2] (Ac-[Nle][Lys(N3)]H[dF][hArg]W[Pra]K-NH2; triazole 2-7) |
| 0.024 | CCCC[C@H](NC(C)=O)C(=O)N[C@H]1CCCCn2cc(nn2)C[C@@H](C(=O)N[C@@H](CCCC(N)=O)C(N)=O)NC(=O)[C@H](Cc2c[nH]c3ccccc23)NC(=O)[C@H](CCCNC(=N)N)NC(=O)[C@@H](Cc2ccccc2)NC(=O)[C@H](Cc2c[nH]cn2)NC1=O [KR-057, Ac-Nle-[Lys(N3)-His-DPhe-Arg-Trp-Pra]-Hgln-NH2] (Ac-[Nle][Lys(N3)]H[dF]RW[Pra][Aad](NH2)-NH2; triazole 2-7) |
| 0.11 | CCCC[C@H](NC(C)=O)C(=O)N[C@H]1Cc2cn(nn2)CCCC[C@@H](C(=O)N[C@@H](CCCCN)C(N)=O)NC(=O)[C@H](Cc2c[nH]c3ccccc23)NC(=O)[C@H](CCCNC(=N)N)NC(=O)[C@@H](Cc2ccccc2)NC(=O)[C@H](Cc2c[nH]cn2)NC1=O [KR-067, Ac-Nle-[Pra-His-DPhe-Arg-Trp-Lys(N3)]-Lys-NH2] (Ac-[Nle][Pra]H[dF]RW[Lys(N3)]K-NH2; triazole 2-7) |
